Experiment [1] can be described thus: DPPH free radical scavenging rate. The format is biochemical. The settings on record: 30 min. The procedure:
The scavenging rate of EPSF-starch on DPPH free radicals was measured as follows: The N-ethyl-2-pyrrolidinone-substituted flavan-3-ol (EPSF) in Example 1 and EGCG in Comparative Example 1 were uniformly dispersed in methanol separately, obtaining dispersions with mass concentrations of 2 μg/mL, 4 μg/mL, 6 μg/mL, 8 μg/mL, 10 μg/mL and 12 μg/mL. The corn starch and EPSF-starch in Example 1, as well as the EGCG-starch in Comparative Example 1, were uniformly dispersed in methanol to obtain dispersions with mass concentrations of 0.156 mg/mL, 0.313 mg/mL, 0.625 mg/mL, 1.25 mg/mL, and 2.50 mg/mL. 2 mL of the above sample dispersions were pipetted in sequence into test tubes, and 2.0 mL of a DPPH solution (0.2 mmol/L, which was prepared with methanol) was added thereto, respectively. The resulting mixture was shaken well, and reacted at ambient temperature in dark for 30 minutes. The absorbance A1 thereof was then measured at 517 nm. Meanwhile, DPPH solution was replaced with an equal amount of methanol solution, and the absorbance A2 thereof was measured according to the above method. The absorbance A0 of a mixture of 2.0 mL of methanol and 2.0 mL of DPPH solution was measured. Experiments of each group were repeated three times, and the DPPH free radical scavenging rate of EPSF-starch was calculated according to Equation 1.
[formula] • where A0 represents the absorbance of the mixture of methanol and DPPH solution; A1 represents the absorbance of a mixture of the sample dispersion and DPPH free radical solution; and A2 represents the absorbance of a mixture of the sample dispersion and methanol.

A short description of experiment [2]: ABTS free radical scavenging rate. The format is biochemical. As to conditions: 5 min. As to the method:
The ABTS free radical scavenging rate of EPSF-starch was measured as follows: 100 mg of ABTS and 34.4 mg of potassium persulfate were dissolved in 25 mL of distilled water. They were shaken well, and stored at ambient temperature in dark for 12-16 hours.
EPSFs in Example 1 and EGCG in Comparative Example 1 were dispersed uniformly in methanol, obtaining dispersions with mass concentrations of 2 μg/mL, 4 μg/mL, 6 μg/mL, 8 μg/mL, 10 μg/mL and 12 μg/mL. The corn starch and EPSF-starch in Example 1, as well as the EGCG-starch in Comparative Example 1, were uniformly dispersed in methanol obtaining dispersions with mass concentrations of 0.156 mg/mL, 0.313 mg/mL, 0.625 mg/mL, 1.25 mg/mL, and 2.50 mg/mL. 1.0 mL of the above sample solutions and 3.0 mL of the ABTS free radical working solution were added to the test tube in sequence, and they were shaken well, and reacted at ambient temperature in dark for 5 minutes. The absorbance A1 thereof was measured at 734 nm. The sample solutions were replaced with methanol and the absorbance A0 thereof was measured according to the above method. EGCG, starch, and EGCG-starch functioned as control groups, and the ABTS free radical scavenging rates thereof were determined according to the above method. Experiment of each group was repeated three times, and the ABTS free radical scavenging rate of each sample was calculated according to Equation 2.
[formula] • where A0 represents the absorbance of a mixture of the sample dispersion and methanol; and A1 represents the absorbance of the sample dispersion and ABTS radical solution.

Regarding epigallocatechin-3-gallate [EGCG], the “DPPH free radical scavenging rate” value came to 21.57 ± 0.04% in experiment [1] (sample concentration 2 μg/ml in methanol); 50.98 ± 0.25% in experiment [1] (sample concentration 4 μg/ml in methanol); 67.85 ± 4% in experiment [1] (sample concentration 6 μg/ml in methanol); 88.44 ± 0.27% in experiment [1] (sample concentration 8 μg/ml in methanol); 85.67 ± 2.01% in experiment [1] (sample concentration 10 μg/ml in methanol); 87.39 ± 2.62% in experiment [1] (sample concentration 12 μg/ml in methanol). For the same substance, the “DPPH free radical scavenging rate” value in experiment [1] (sample concentration 2.5 mg/ml in methanol) is reported as 90%. Besides, the “ABTS free radical scavenging rate” value was determined as 51.91 ± 2.1% in experiment [2] (sample concentration 2 μg/mL in methanol); 78.8 ± 1.73% in experiment [2] (sample concentration 4 μg/mL in methanol); 91.49 ± 1.23% in experiment [2] (sample concentration 6 μg/mL in methanol); 94.38 ± 2.07% in experiment [2] (sample concentration 8 μg/mL in methanol); 95.17 ± 1.8% in experiment [2] (sample concentration 10 μg/mL in methanol); 95.24 ± 1.69% in experiment [2] (sample concentration 12 μg/mL in methanol).

The record behind these values is patent US12122854B2, “Graft copolymer and preparation method and use thereof” (ANHUI AGRICULTURAL UNIVERSITY, priority 2022, dated 2024).
